In patent publication US10322126B2, “Solid dispersions of low-water solubility actives” (Bend Research, Inc., priority 2013, dated 2019):

What was measured:
[1] = Microcentrifuge dissolution test (simulated gastric buffer, then FaSSIF); assay type: physicochemical; conditions: 37° C.
Experimental: Dispersion 1 was evaluated in vitro using a microcentrifuge dissolution test using the following procedure. First, a sample of Dispersion 1 was placed in a microcentrifuge tube. A simulated gastric buffer (GB) solution consisting of 0.01 N HCl in water at 37° C. was added to each tube, so that the concentration if all of the active in the dispersion had dissolved would have been 2000 μg/mL. The tubes were vortexed for 1 minute. All work was performed in a temperature-controlled box at 37° C. After 9 minutes, the tubes were centrifuged at 13,000 rpm for 1 minute. A 50 μL centrifuged supernatant aliquot was removed from each tube and added to an HPLC vial containing 250 μL HPLC grade methanol. Following sample removal, the tubes were vortexed for 30 seconds. The tubes were allowed to sit undisturbed until the next sample, repeating the centrifuging/sampling/vortexing steps described above, to obtain a sample at 25 minutes following addition of the GB solution to the sample.
After 30 minutes in the GB solution, 0.8 mL of double strength (1 wt %) simulated intestinal fluid powder (SIF powder, available from Phares AG, Basel, Switzerland) in double strength phosphate buffer saline (0.166 M NaCl, 0.040 M Na2HPO4, and 0.093 M KH2PO4), adjusted to pH 6.5 was added to each tube. The tubes were vortexed for 1 minute. The testing solution composition was used to model fasted simulated intestinal fluid (FaSSIF). The FaSSIF powder contains bile salts (taurocholate) and phospholipids (lecithin) in a molar ratio of 4 to 1, along with buffers and osmotic adjusters. The concentration of active in each tube was 1000 μg/mL if all of the active had dissolved. After 3 minutes in the FaSSIF solution, the tubes were centrifuged at 13,000 rpm for 1 minute. A 50 μL centrifuged supernatant aliquot was removed, as previously described, and added to an HPLC vial containing 250 μL of methanol. The tube then was vortexed for 30 seconds, and left undisturbed until the next time point. The procedure was repeated to collect samples at 10, 20, 40, 90, and 180 minutes after addition of FaSSIF to the vials.
The dissolved concentrations of active were measured by HPLC. HPLC was performed using a Zorbax® SB-C18, 4.6×150 mm, 5 μm column at 30° C., and a mobile phase comprising 20 mM ammonium acetate/acetonitrile (43/57 vol/vol). The flow rate was 1.0 mL/min, 10 μL of each solution was injected, and the absorbance was measured at 332 nm.
Dispersion 2 was tested using the same procedures described above. Control 1 was tested using the same procedures described above.

[2] = cited from earlier work

Dissolved Active Concentration ([1]; 10 minutes, GB solution (0.01 N HCl), 2000 μg/mL if all dissolved): 1,847.8 μg/mL
Dissolved Active Concentration ([1]; 25 minutes, GB solution (0.01 N HCl), 2000 μg/mL if all dissolved): 1,818.5 μg/mL
Dissolved Active Concentration ([1]; 34 minutes (4 min after addition of FaSSIF, pH 6.5), 1000 μg/mL if all dissolved): 58.0 µg/mL
Dissolved Active Concentration ([1]; 40 minutes (10 min after addition of FaSSIF, pH 6.5), 1000 μg/mL if all dissolved): 68.1 µg/mL
Dissolved Active Concentration ([1]; 50 minutes (20 min after addition of FaSSIF, pH 6.5), 1000 μg/mL if all dissolved): 51.4 µg/mL
Dissolved Active Concentration ([1]; 70 minutes (40 min after addition of FaSSIF, pH 6.5), 1000 μg/mL if all dissolved): 55.1 µg/mL
Dissolved Active Concentration ([1]; 120 minutes (90 min after addition of FaSSIF, pH 6.5), 1000 μg/mL if all dissolved): 67.8 µg/mL
Dissolved Active Concentration ([1]; 210 minutes (180 min after addition of FaSSIF, pH 6.5), 1000 μg/mL if all dissolved): 55.1 µg/mL
Structure (SMILES): C#Cc1cccc(Nc2ncnc3cc(OCCOC)c(OCCOC)cc23)c1 [Erlotinib, N-(3-ethynylphenyl)-6,7-bis(2-methoxyethoxy) quinazolin-4-amine]
solubility in phosphate buffered saline (pH 6.5) [2]: about 1 μg/mL
